{"source": "paper PMC9863297", "about": "“Intermolecular Interactions of Edaravone in Aqueous Solutions of Ethaline and Glyceline Inferred from Experiments and Quantum Chemistry Computations” (Molecules, 2023)", "assay": "Edaravone solubility, slurry/shake-flask method with spectrophotometric determination at 243 nm", "type": "physicochemical", "conditions": "thermodynamic from solid, read-out: cE solubility concentration", "protocol": "The first step in obtaining a calibration curve was the preparation of a stock solution of edaravone with a concentration of 2.3 mg/mL. This initial solution was successfully diluted in 10 mL volumetric flasks with methanol and the obtained solutions with decreasing concentrations were measured spectrophotometrically. […] Three separate curves were obtained, and the final curve resulted from averaging. […] The limits of detection (LOD) and quantification (LOQ) were calculated as 5.899∙10^−4 mg/mL and 1.770∙10^−3 mg/mL, respectively.\nAll of the studied deep eutectic solvents included choline chloride, while the second constituent was either glycerol or ethylene glycol. In order to prepare a DES formulation, choline chloride was mixed with the second compound in different molar ratios in sealed test tubes and placed in a water bath at 363.15 K until the formation of a uniform solution. The obtained DES were either used in their neat form or water was added to them in different proportions in order to form binary systems.\nDuring the next stage, edaravone was added in excess amounts to the test tubes containing both neat DES and binary mixtures, which enabled us to obtain its saturated solutions. Samples prepared in such a manner were placed in an Orbital Shaker Incubator ES-20/60 from Biosan (Riga, Latvia) and incubated for 24 h at different temperatures, namely 298.15 K, 303.15 K, 308.15 K and 313.15 K. The temperature adjustment accuracy was 0.1 K and its variability in a 24 h cycle was ±0.5 K. Apart from heating, all of the samples were mixed at 60 rev/min. The increased viscosity and density of DES systems required the samples to be centrifuged at 1000 rev/min for 5 min with the use of EBA 20 centrifuge from Hettich (Tuttlingen, Germany) enabling the undissolved precipitate to remain on the bottom of the test tubes. Next, the samples were filtered using a syringe equipped with a PTFE syringe filer with 0.22 µm pore size. In order to avoid precipitation, the test tubes, syringes and filters were initially heated at a temperature equal to the one of the handled samples. Finally, small amounts of the obtained filtrate were transferred to test tubes filled with methanol and the diluted samples were measured spectrophotometrically. Additionally, for the determination of the mole fractions of edaravone, the density of the samples was measured by weighing a fixed volume of the solution in 10 mL volumetric flasks.\nFor determining the solubility of edaravone in the studied systems, the samples prepared, as described above, were measured spectrophotometrically using an A360 spectrophotometer from AOE Instruments (Shanghai, China). The spectra were recorded in the 190 nm to 500 nm wavelength range and 1 nm resolution. Methanol was used for the initial calibration of the spectrophotometer and for the dilution of the measured samples, which was conducted in order for the absorbance values to remain below 2.5. The absorbance values at 243 nm were taken into account and based on the calibration curve prepared earlier, the concentration of edaravone in the samples was determined, followed by its mole fractions. The values were averaged from three separate measurements.", "note": "Like-named read-outs stand apart in the source and are kept apart here."}
{"molecule": "CC1=NN(c2ccccc2)C(=O)C1", "note": "[edaravone, 5-methyl-2-phenyl-4H-pyrazol-3-one]", "values": [{"measurement": "solubility at 24 h", "setting": "25 °C, aqueous with cosolvent or surfactant or cyclodextrin, water + ETA (ChCl:EG 1:2), x*ETA = 0.2, 298.15 K", "result": 221, "unit": "mg/mL"}, {"measurement": "solubility at 24 h", "setting": "25 °C, aqueous with cosolvent or surfactant or cyclodextrin, water + ETA (ChCl:EG 1:2), x*ETA = 0.4, 298.15 K", "result": 407, "unit": "mg/mL"}, {"measurement": "solubility at 24 h", "setting": "25 °C, aqueous with cosolvent or surfactant or cyclodextrin, water + ETA (ChCl:EG 1:2), x*ETA = 0.5, 298.15 K", "result": 457, "unit": "mg/mL"}, {"measurement": "solubility at 24 h", "setting": "25 °C, aqueous with cosolvent or surfactant or cyclodextrin, water + GLE (ChCl:GL 1:2), x*GLE = 0.2, 298.15 K", "result": 115, "unit": "mg/mL"}, {"measurement": "solubility at 24 h", "setting": "25 °C, aqueous with cosolvent or surfactant or cyclodextrin, water + GLE (ChCl:GL 1:2), x*GLE = 0.4, 298.15 K", "result": 233, "unit": "mg/mL"}, {"measurement": "solubility at 24 h", "setting": "25 °C, aqueous with cosolvent or surfactant or cyclodextrin, water + GLE (ChCl:GL 1:2), x*GLE = 0.5, 298.15 K", "result": 299, "unit": "mg/mL"}, {"measurement": "solubility at 24 h", "setting": "25 °C, aqueous with cosolvent or surfactant or cyclodextrin, water + GLE (ChCl:GL 1:2), x*GLE = 0.8, 298.15 K", "result": 266, "unit": "mg/mL"}, {"measurement": "solubility at 24 h", "setting": "25 °C, organic solvent or mixture, neat DES choline chloride + glycerol (GLE) 1:2 molar ratio (x*GLE = 1.0), 298.15 K", "result": 191, "unit": "mg/mL"}, {"measurement": "solubility at 24 h", "setting": "25 °C, organic solvent or mixture, neat DES choline chloride + glycerol (GLE) 1:4 molar ratio, 298.15 K", "result": 177, "unit": "mg/mL"}, {"measurement": "solubility at 24 h", "setting": "30 °C, aqueous with cosolvent or surfactant or cyclodextrin, water + ETA (ChCl:EG 1:2), x*ETA = 0.2, 303.15 K", "result": 270, "unit": "mg/mL"}, {"measurement": "solubility at 24 h", "setting": "30 °C, aqueous with cosolvent or surfactant or cyclodextrin, water + ETA (ChCl:EG 1:2), x*ETA = 0.4, 303.15 K", "result": 505, "unit": "mg/mL"}, {"measurement": "solubility at 24 h", "setting": "30 °C, aqueous with cosolvent or surfactant or cyclodextrin, water + ETA (ChCl:EG 1:2), x*ETA = 0.5, 303.15 K", "result": 554, "unit": "mg/mL"}, {"measurement": "solubility at 24 h", "setting": "30 °C, aqueous with cosolvent or surfactant or cyclodextrin, water + GLE (ChCl:GL 1:2), x*GLE = 0.2, 303.15 K", "result": 148, "unit": "mg/mL"}, {"measurement": "solubility at 24 h", "setting": "30 °C, aqueous with cosolvent or surfactant or cyclodextrin, water + GLE (ChCl:GL 1:2), x*GLE = 0.4, 303.15 K", "result": 328, "unit": "mg/mL"}, {"measurement": "solubility at 24 h", "setting": "30 °C, aqueous with cosolvent or surfactant or cyclodextrin, water + GLE (ChCl:GL 1:2), x*GLE = 0.5, 303.15 K", "result": 415, "unit": "mg/mL"}, {"measurement": "solubility at 24 h", "setting": "30 °C, aqueous with cosolvent or surfactant or cyclodextrin, water + GLE (ChCl:GL 1:2), x*GLE = 0.6, 303.15 K", "result": 464, "unit": "mg/mL"}, {"measurement": "solubility at 24 h", "setting": "30 °C, aqueous with cosolvent or surfactant or cyclodextrin, water + GLE (ChCl:GL 1:2), x*GLE = 0.8, 303.15 K", "result": 364, "unit": "mg/mL"}, {"measurement": "solubility at 24 h", "setting": "30 °C, organic solvent or mixture, neat DES choline chloride + glycerol (GLE) 1:1 molar ratio, 303.15 K", "result": 203, "unit": "mg/mL"}, {"measurement": "solubility at 24 h", "setting": "30 °C, organic solvent or mixture, neat DES choline chloride + glycerol (GLE) 1:2 molar ratio (x*GLE = 1.0), 303.15 K", "result": 282, "unit": "mg/mL"}, {"measurement": "solubility at 24 h", "setting": "30 °C, organic solvent or mixture, neat DES choline chloride + glycerol (GLE) 1:4 molar ratio, 303.15 K", "result": 246, "unit": "mg/mL"}, {"measurement": "solubility at 24 h", "setting": "35 °C, aqueous with cosolvent or surfactant or cyclodextrin, water + ETA (ChCl:EG 1:2), x*ETA = 0.2, 308.15 K", "result": 331, "unit": "mg/mL"}, {"measurement": "solubility at 24 h", "setting": "35 °C, aqueous with cosolvent or surfactant or cyclodextrin, water + ETA (ChCl:EG 1:2), x*ETA = 0.4, 308.15 K", "result": 603, "unit": "mg/mL"}, {"measurement": "solubility at 24 h", "setting": "35 °C, aqueous with cosolvent or surfactant or cyclodextrin, water + GLE (ChCl:GL 1:2), x*GLE = 0.2, 308.15 K", "result": 201, "unit": "mg/mL"}, {"measurement": "solubility at 24 h", "setting": "35 °C, aqueous with cosolvent or surfactant or cyclodextrin, water + GLE (ChCl:GL 1:2), x*GLE = 0.4, 308.15 K", "result": 402, "unit": "mg/mL"}, {"measurement": "solubility at 24 h", "setting": "35 °C, aqueous with cosolvent or surfactant or cyclodextrin, water + GLE (ChCl:GL 1:2), x*GLE = 0.5, 308.15 K", "result": 518, "unit": "mg/mL"}, {"measurement": "solubility at 24 h", "setting": "35 °C, aqueous with cosolvent or surfactant or cyclodextrin, water + GLE (ChCl:GL 1:2), x*GLE = 0.6, 308.15 K", "result": 567, "unit": "mg/mL"}, {"measurement": "solubility at 24 h", "setting": "35 °C, aqueous with cosolvent or surfactant or cyclodextrin, water + GLE (ChCl:GL 1:2), x*GLE = 0.8, 308.15 K", "result": 472, "unit": "mg/mL"}, {"measurement": "solubility at 24 h", "setting": "35 °C, organic solvent or mixture, neat DES choline chloride + glycerol (GLE) 1:1 molar ratio, 308.15 K", "result": 274, "unit": "mg/mL"}, {"measurement": "solubility at 24 h", "setting": "35 °C, organic solvent or mixture, neat DES choline chloride + glycerol (GLE) 1:2 molar ratio (x*GLE = 1.0), 308.15 K", "result": 369, "unit": "mg/mL"}, {"measurement": "solubility at 24 h", "setting": "35 °C, organic solvent or mixture, neat DES choline chloride + glycerol (GLE) 1:4 molar ratio, 308.15 K", "result": 336, "unit": "mg/mL"}, {"measurement": "solubility at 24 h", "setting": "40 °C, aqueous with cosolvent or surfactant or cyclodextrin, water + ETA (ChCl:EG 1:2), x*ETA = 0.2, 313.15 K", "result": 382, "unit": "mg/mL"}, {"measurement": "solubility at 24 h", "setting": "40 °C, aqueous with cosolvent or surfactant or cyclodextrin, water + ETA (ChCl:EG 1:2), x*ETA = 0.4, 313.15 K", "result": 684, "unit": "mg/mL"}, {"measurement": "solubility at 24 h", "setting": "40 °C, aqueous with cosolvent or surfactant or cyclodextrin, water + GLE (ChCl:GL 1:2), x*GLE = 0.2, 313.15 K", "result": 252, "unit": "mg/mL"}, {"measurement": "solubility at 24 h", "setting": "40 °C, aqueous with cosolvent or surfactant or cyclodextrin, water + GLE (ChCl:GL 1:2), x*GLE = 0.4, 313.15 K", "result": 514, "unit": "mg/mL"}, {"measurement": "solubility at 24 h", "setting": "40 °C, aqueous with cosolvent or surfactant or cyclodextrin, water + GLE (ChCl:GL 1:2), x*GLE = 0.5, 313.15 K", "result": 647, "unit": "mg/mL"}]}
